Source: EP4745135A1 (Gluetacs Therapeutics (Shanghai) Co., Ltd., priority 2023, dated 2025)

How the values were obtained:
CK1α = target: T1, CK1α (Homo sapiens, UniProt P48729+Q96SW2); experiment: Western blot, degradation of substrate protein in hPBMCs; format: cell-based
T1 construct: effects of the compounds of the present disclosure on the expression of target proteins in cells; endogenous in cells; host or cells: human PBMCs (Milecell Biotechnologies)

IKZF1 = target: T2, IKZF1 (Homo sapiens, UniProt Q13422+Q96SW2); experiment: as above; format: cell-based
T2 construct: effects of the compounds of the present disclosure on the expression of target proteins in cells; endogenous in cells; host or cells: human PBMCs (Milecell Biotechnologies)

IKZF2 = target: T3, IKZF2 (Homo sapiens, UniProt Q96SW2+Q9UKS7); experiment: as above; format: cell-based
T3 construct: effects of the compounds of the present disclosure on the expression of target proteins in cells; endogenous in cells; host or cells: human PBMCs (Milecell Biotechnologies)

IKZF3 = target: T4, IKZF3 (Homo sapiens, UniProt Q96SW2+Q9UKT9); experiment: as above; format: cell-based
T4 construct: effects of the compounds of the present disclosure on the expression of target proteins in cells; endogenous in cells; host or cells: human PBMCs (Milecell Biotechnologies)

WEE1 = target: T5, WEE1 (Homo sapiens, UniProt P30291+Q96SW2); experiment: as above; format: cell-based
T5 construct: effects of the compounds of the present disclosure on the expression of target proteins in cells; endogenous in cells; host or cells: human PBMCs (Milecell Biotechnologies)

GSPT1 = experiment: as above; format: cell-based, Human
[1] = target: T6, human Cereblon WT GST-tagged protein (Homo sapiens, UniProt Q96SW2); experiment: CRBN-binding affinity, HTRF (CEREBLON BINDING kit); settings: for inhibition at 0.5 µM: read-out: Inhibition Rate at 0.5 µM (%); for inhibition at 2 µM: read-out: Inhibition Rate at 2 µM (%); for IC50: CRBN binding, HTRF, 3 hours at room temperature, read-out: HTRF IC50
T6 construct: purchased CISBIO 64BDCRBNPEH

[2] = Western blot, 24 hours of compound treatment, compounds tested at 50 nM and 500 nM (concentration for the table not stated)
[3] = 24 hours treatment, compounds at 50 nM and 500 nM (concentration behind the class not stated)

T4 sequence (Q9UKT9 whole entry): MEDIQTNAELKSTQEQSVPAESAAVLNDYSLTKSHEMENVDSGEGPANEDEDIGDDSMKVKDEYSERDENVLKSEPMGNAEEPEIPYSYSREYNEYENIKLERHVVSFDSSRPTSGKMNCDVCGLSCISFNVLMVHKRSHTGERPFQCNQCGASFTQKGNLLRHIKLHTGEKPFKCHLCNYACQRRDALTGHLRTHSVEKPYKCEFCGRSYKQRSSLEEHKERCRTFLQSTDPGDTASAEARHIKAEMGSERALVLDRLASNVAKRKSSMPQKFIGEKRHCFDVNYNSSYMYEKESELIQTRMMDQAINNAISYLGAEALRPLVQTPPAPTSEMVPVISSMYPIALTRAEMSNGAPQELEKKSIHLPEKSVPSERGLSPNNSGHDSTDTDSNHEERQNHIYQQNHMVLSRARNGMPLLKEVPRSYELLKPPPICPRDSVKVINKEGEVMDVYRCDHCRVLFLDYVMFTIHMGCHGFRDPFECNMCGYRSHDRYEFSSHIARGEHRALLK
T4 sequence (Q96SW2 whole entry): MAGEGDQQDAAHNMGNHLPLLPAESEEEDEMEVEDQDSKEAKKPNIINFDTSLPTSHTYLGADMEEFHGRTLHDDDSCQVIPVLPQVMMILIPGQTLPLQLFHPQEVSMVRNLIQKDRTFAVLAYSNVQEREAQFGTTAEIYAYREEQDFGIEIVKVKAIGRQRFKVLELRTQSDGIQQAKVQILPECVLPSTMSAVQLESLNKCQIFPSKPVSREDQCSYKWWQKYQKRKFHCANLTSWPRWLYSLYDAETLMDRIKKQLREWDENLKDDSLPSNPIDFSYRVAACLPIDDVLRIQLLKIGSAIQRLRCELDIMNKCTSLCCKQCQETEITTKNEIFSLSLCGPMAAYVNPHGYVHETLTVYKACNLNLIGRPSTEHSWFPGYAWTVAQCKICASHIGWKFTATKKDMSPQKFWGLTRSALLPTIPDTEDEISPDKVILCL
T4 sequence (Q16531 whole entry partner): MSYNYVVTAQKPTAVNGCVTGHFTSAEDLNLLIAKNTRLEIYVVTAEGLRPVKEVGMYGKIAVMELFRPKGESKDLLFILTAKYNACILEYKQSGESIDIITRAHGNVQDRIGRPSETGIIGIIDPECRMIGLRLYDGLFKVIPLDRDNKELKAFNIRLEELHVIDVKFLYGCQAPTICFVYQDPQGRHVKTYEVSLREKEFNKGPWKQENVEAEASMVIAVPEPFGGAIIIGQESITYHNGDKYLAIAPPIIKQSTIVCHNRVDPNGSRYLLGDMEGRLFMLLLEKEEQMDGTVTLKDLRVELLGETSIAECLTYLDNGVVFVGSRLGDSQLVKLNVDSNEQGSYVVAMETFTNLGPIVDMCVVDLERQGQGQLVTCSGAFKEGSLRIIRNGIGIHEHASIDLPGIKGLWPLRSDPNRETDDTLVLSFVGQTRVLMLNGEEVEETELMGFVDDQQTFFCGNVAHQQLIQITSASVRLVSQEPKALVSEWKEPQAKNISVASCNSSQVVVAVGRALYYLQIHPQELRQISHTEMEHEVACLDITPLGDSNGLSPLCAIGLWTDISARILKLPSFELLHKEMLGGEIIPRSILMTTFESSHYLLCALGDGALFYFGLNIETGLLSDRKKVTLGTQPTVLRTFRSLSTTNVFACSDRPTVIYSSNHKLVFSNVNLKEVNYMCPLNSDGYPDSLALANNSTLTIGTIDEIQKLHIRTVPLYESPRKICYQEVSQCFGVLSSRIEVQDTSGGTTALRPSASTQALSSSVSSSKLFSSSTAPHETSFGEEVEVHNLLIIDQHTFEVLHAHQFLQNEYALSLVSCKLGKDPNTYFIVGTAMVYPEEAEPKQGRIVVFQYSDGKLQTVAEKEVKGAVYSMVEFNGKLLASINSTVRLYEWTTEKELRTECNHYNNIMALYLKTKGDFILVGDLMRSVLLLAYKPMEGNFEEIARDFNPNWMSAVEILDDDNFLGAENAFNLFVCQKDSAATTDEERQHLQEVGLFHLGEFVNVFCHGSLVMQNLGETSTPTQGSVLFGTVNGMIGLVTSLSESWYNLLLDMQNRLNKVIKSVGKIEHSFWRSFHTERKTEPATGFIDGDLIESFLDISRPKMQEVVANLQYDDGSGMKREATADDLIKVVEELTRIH
T3 sequence (Q9UKS7 whole entry): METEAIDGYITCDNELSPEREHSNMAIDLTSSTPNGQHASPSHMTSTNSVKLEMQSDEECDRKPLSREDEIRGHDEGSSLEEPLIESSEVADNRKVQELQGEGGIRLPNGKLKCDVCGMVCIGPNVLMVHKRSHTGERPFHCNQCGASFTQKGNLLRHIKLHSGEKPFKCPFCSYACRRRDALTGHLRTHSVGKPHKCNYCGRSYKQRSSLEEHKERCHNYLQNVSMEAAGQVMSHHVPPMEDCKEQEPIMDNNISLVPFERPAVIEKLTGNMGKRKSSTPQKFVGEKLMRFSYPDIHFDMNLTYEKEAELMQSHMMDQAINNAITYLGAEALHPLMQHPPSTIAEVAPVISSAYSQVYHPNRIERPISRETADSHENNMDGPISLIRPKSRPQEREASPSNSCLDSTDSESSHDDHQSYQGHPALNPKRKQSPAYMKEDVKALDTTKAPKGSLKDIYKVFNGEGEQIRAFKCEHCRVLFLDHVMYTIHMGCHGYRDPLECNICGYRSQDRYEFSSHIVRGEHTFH
T3 sequence (Q96SW2 whole entry): as the sequence (Q96SW2 whole entry) above
T3 sequence (Q16531 whole entry partner): as the sequence (Q16531 whole entry partner) above
T6 sequence (Q96SW2 whole entry): as the sequence (Q96SW2 whole entry) above
T2 sequence (Q13422 whole entry): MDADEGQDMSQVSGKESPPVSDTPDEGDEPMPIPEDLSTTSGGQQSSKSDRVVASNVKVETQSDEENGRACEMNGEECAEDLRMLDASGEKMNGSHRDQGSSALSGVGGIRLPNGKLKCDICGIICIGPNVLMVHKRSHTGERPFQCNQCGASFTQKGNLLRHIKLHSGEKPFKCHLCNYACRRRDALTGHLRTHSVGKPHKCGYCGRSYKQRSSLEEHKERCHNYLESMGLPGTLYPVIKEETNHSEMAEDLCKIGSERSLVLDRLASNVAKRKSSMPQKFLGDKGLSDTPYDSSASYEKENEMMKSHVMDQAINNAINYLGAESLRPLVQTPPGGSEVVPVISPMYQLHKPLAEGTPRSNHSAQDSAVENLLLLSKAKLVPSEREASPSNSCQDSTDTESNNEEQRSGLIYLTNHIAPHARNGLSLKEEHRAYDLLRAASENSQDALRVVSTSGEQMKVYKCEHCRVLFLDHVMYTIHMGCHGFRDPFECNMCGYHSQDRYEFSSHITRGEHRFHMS
T2 sequence (Q96SW2 whole entry): as the sequence (Q96SW2 whole entry) above
T2 sequence (Q16531 whole entry partner): as the sequence (Q16531 whole entry partner) above
T1 sequence (P48729 whole entry): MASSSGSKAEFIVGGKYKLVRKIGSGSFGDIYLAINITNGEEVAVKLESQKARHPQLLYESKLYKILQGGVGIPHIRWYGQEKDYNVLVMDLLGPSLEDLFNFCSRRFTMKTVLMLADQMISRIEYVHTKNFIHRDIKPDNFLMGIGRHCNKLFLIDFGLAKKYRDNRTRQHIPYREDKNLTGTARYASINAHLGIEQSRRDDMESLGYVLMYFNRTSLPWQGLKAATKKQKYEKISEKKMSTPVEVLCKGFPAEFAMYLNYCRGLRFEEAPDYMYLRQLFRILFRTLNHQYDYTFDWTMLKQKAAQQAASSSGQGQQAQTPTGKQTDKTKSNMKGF
T1 sequence (Q96SW2 whole entry): as the sequence (Q96SW2 whole entry) above
T1 sequence (Q16531 whole entry partner): as the sequence (Q16531 whole entry partner) above
T5 sequence (P30291 whole entry): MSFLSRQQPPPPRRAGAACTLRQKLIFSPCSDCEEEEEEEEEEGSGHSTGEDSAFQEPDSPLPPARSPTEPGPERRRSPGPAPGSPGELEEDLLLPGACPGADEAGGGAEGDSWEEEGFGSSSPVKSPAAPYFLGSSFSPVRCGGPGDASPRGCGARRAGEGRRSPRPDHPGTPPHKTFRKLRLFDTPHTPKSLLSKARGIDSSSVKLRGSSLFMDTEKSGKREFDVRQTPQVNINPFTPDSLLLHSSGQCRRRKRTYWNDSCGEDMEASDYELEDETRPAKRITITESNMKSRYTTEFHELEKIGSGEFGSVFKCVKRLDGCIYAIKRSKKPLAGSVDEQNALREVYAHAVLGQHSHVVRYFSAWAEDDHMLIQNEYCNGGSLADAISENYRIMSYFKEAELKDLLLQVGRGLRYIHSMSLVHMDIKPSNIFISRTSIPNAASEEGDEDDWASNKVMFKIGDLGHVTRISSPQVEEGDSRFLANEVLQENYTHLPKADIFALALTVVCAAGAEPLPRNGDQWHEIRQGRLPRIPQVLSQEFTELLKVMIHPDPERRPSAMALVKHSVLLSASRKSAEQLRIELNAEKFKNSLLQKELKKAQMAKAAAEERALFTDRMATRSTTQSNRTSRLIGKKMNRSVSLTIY
T5 sequence (Q96SW2 whole entry): as the sequence (Q96SW2 whole entry) above
T5 sequence (Q16531 whole entry partner): as the sequence (Q16531 whole entry partner) above

SMILES	inhibition at 0.5 µM [1] [%]	inhibition at 2 µM [1] [%]	IC50 [1] [nM]	CK1α substrate protein remaining % (CK1α; [2])	IKZF 1 substrate protein remaining % (IKZF1; [2])	IKZF2 substrate protein remaining % (IKZF2; [2])	IKZF3 substrate protein remaining % (IKZF3; [2])	Wee1 substrate protein remaining % (WEE1; [2])	GSPT1 substrate protein remaining % (GSPT1; [2])	CK1α substrate protein remaining % (CK1α; [3])	IKZF 1 substrate protein remaining % (IKZF1; [3])	IKZF2 substrate protein remaining % (IKZF2; [3])	IKZF3 substrate protein remaining % (IKZF3; [3])	Wee1 substrate protein remaining % (WEE1; [3])	GSPT1 substrate protein remaining % (GSPT1; [3])
Cc1ccsc1C1=CCN(Cc2ccc3c(c2)C(=S)N(C2CCC(=O)NC2=O)C3)CC1 (centres unmarked) [GT-05032, 3-(6-((4-(3-methylthiophen-2-yl)-3,6-dihydropyridin-1(2H)-yl)methyl)-1-thioxoisoindolin-2-yl)piperidine-2,6-dione]			100 to 500							B (80%< substrate protein remaining %≤ 100%)	B (80%< substrate protein remaining %≤ 100%)	B (80%< substrate protein remaining %≤ 100%)	A (0% ≤ substrate protein remaining % ≤ 80%)	B (80%< substrate protein remaining %≤ 100%)	A (0% ≤ substrate protein remaining % ≤ 80%)
Cc1nc(N2CCN(Cc3cccc4c3CN(C3CCC(=O)NC3=O)C4=S)CC2)c2c3c(sc2n1)CCC3 (centres unmarked) [GT-08926, 3-(4-((4-(2-methyl-6,7-dihydro-5H-cyclopenta[4,5]thieno[2,3-d]pyrimidin-4-yl)piperazin-1-yl)methyl)-1-thioxoisoindolin-2-yl)piperidine-2,6-dione]	53 to 60	80 to 100								B (80%< substrate protein remaining %≤ 100%)	B (80%< substrate protein remaining %≤ 100%)	B (80%< substrate protein remaining %≤ 100%)	B (80%< substrate protein remaining %≤ 100%)	A (0% ≤ substrate protein remaining % ≤ 80%)	B (80%< substrate protein remaining %≤ 100%)
Cc1cscc1C1CCN(Cc2cccc3c2CN(C2CCC(=O)NC2=O)C3=S)CC1 (centres unmarked) [GT-08309, 3-(4-((4-(4-methylthiophen-3-yl)piperidin-1-yl)methyl)-1-thioxoisoindolin-2-yl)piperidine-2,6-dione]	53 to 60	80 to 100								B (80%< substrate protein remaining %≤ 100%)	B (80%< substrate protein remaining %≤ 100%)	B (80%< substrate protein remaining %≤ 100%)	B (80%< substrate protein remaining %≤ 100%)	A (0% ≤ substrate protein remaining % ≤ 80%)	B (80%< substrate protein remaining %≤ 100%)
O=C1CCC(N2Cc3c(CN4CC=C(c5ncnc6scc(-c7ccccc7)c56)CC4)cccc3C2=S)C(=O)N1 (centres unmarked) [GT-08957, 3-(4-((4-(5-phenylthieno[2,3-d]pyrimidin-4-yl)-3,6-dihydropyridin-1(2H)-yl)methyl)-1-thioxoisoindolin-2-yl)piperidine-2,6-dione]	60 to 80	80 to 100								B (80%< substrate protein remaining %≤ 100%)	B (80%< substrate protein remaining %≤ 100%)	B (80%< substrate protein remaining %≤ 100%)	B (80%< substrate protein remaining %≤ 100%)	A (0% ≤ substrate protein remaining % ≤ 80%)	B (80%< substrate protein remaining %≤ 100%)
O=C1CCC(N2Cc3c(CN4CCN(c5nccc(F)c5F)CC4)cccc3C2=S)C(=O)N1 (centres unmarked) [GT-08728, 3-(4-((4-(3,4-difluoropyridin-2-yl)piperazin-1-yl)methyl)-1-thioxoisoindolin-2-yl)piperidine-2,6-dione]	53 to 60	80 to 100		B (80%< substrate protein remaining %≤ 100%)	B (80%< substrate protein remaining %≤ 100%)	B (80%< substrate protein remaining %≤ 100%)	B (80%< substrate protein remaining %≤ 100%)	A (0% ≤ substrate protein remaining % ≤ 80%)	B (80%< substrate protein remaining %≤ 100%)						
O=C1CCC(N2Cc3ccc(CN4CCC(c5noc6cc(F)ccc56)CC4)cc3C2=S)C(=O)N1 (centres unmarked) [GT-05031, 3-(6-((4-(6-fluorobenzo[d]isoxazol-3-yl)piperidin-1-yl)methyl)-1-thioxoisoindolin-2-yl)piperidine-2,6-dione]			100 to 500							B (80%< substrate protein remaining %≤ 100%)	B (80%< substrate protein remaining %≤ 100%)	B (80%< substrate protein remaining %≤ 100%)	A (0% ≤ substrate protein remaining % ≤ 80%)	B (80%< substrate protein remaining %≤ 100%)	A (0% ≤ substrate protein remaining % ≤ 80%)
O=C1CCC(N2Cc3c(CN4CC=C(c5ccnc(Cl)c5Cl)CC4)cccc3C2=S)C(=O)N1 (centres unmarked) [GT-08462, 3-(4-((2',3'-dichloro-3,6-dihydro-[4,4'-bipyridin]-1(2H)-yl)methyl)-1-thioxoisoindolin-2-yl)piperidine-2,6-dione]	60 to 80	80 to 100		B (80%< substrate protein remaining %≤ 100%)	B (80%< substrate protein remaining %≤ 100%)	B (80%< substrate protein remaining %≤ 100%)	B (80%< substrate protein remaining %≤ 100%)	A (0% ≤ substrate protein remaining % ≤ 80%)	B (80%< substrate protein remaining %≤ 100%)						

Continued, in another order:

inhibition at 0.5 µM [1] [%]	inhibition at 2 µM [1] [%]	IC50 [1] [nM]	SMILES	CK1α substrate protein remaining % (CK1α; [2])	IKZF 1 substrate protein remaining % (IKZF1; [2])	IKZF2 substrate protein remaining % (IKZF2; [2])	IKZF3 substrate protein remaining % (IKZF3; [2])	Wee1 substrate protein remaining % (WEE1; [2])	GSPT1 substrate protein remaining % (GSPT1; [2])	CK1α substrate protein remaining % (CK1α; [3])	IKZF 1 substrate protein remaining % (IKZF1; [3])	IKZF2 substrate protein remaining % (IKZF2; [3])	IKZF3 substrate protein remaining % (IKZF3; [3])	Wee1 substrate protein remaining % (WEE1; [3])	GSPT1 substrate protein remaining % (GSPT1; [3])
40 to 53	60 to 80		O=C1CCC(N2Cc3c(CN4CC5CCC4CN5c4cccc(Cl)c4Cl)cccc3C2=S)C(=O)N1 (centres unmarked) [GT-08469, 3-(4-((5-(2,3-dichlorophenyl)-2,5-diazabicyclo[2.2.2]octan-2-yl)methyl)-1-thioxoisoindolin-2-yl)piperidine-2,6-dione]	B (80%< substrate protein remaining %≤ 100%)	B (80%< substrate protein remaining %≤ 100%)	B (80%< substrate protein remaining %≤ 100%)	B (80%< substrate protein remaining %≤ 100%)	B (80%< substrate protein remaining %≤ 100%)	A (0% ≤ substrate protein remaining % ≤ 80%)						
		100 to 500	Cc1ccc(N2CCN(Cc3ccc4c(c3)CN(C3CCC(=O)NC3=O)C4=S)CC2)s1 (centres unmarked) [GT-05110, 3-(5-((4-(5-methylthiophen-2-yl)piperazin-1-yl)methyl)-1-thioxoisoindolin-2-yl)piperidine-2,6-dione]	B (80%< substrate protein remaining %≤ 100%)	B (80%< substrate protein remaining %≤ 100%)	B (80%< substrate protein remaining %≤ 100%)	B (80%< substrate protein remaining %≤ 100%)	B (80%< substrate protein remaining %≤ 100%)	A (0% ≤ substrate protein remaining % ≤ 80%)						
30 to 40	80 to 100		O=C1CCC(N2Cc3c(CN4CCC(c5c[nH]c6ncccc56)CC4)cccc3C2=S)C(=O)N1 (centres unmarked) [GT-08848, 3-(4-((4-(1H-pyrrolo[2,3-b]pyridin-3-yl)piperidin-1-yl)methyl)-1-thioxoisoindolin-2-yl)piperidine-2,6-dione]	B (80%< substrate protein remaining %≤ 100%)	B (80%< substrate protein remaining %≤ 100%)	B (80%< substrate protein remaining %≤ 100%)	B (80%< substrate protein remaining %≤ 100%)	A (0% ≤ substrate protein remaining % ≤ 80%)	B (80%< substrate protein remaining %≤ 100%)						
		100 to 500	O=C1CCC(N2Cc3ccc(CN4CCN(c5cccc6sccc56)CC4)cc3C2=S)C(=O)N1 (centres unmarked) [GT-05035, 3-(6-((4-(benzo[b]thiophen-4-yl)piperazin-1-yl)methyl)-1-thioxoisoindolin-2-yl)piperidine-2,6-dione]	B (80%< substrate protein remaining %≤ 100%)	A (0% ≤ substrate protein remaining % ≤ 80%)	A (0% ≤ substrate protein remaining % ≤ 80%)	A (0% ≤ substrate protein remaining % ≤ 80%)	A (0% ≤ substrate protein remaining % ≤ 80%)	A (0% ≤ substrate protein remaining % ≤ 80%)						
60 to 80	80 to 100		O=C1CCC(N2Cc3cc(CN4CCC(c5noc6ccccc56)CC4)ccc3C2=S)C(=O)N1 (centres unmarked) [GT-09266, 3-(5-((4-(benzo[d]isoxazol-3-yl)piperidin-1-yl)methyl)-1-thioxoisoindolin-2-yl)piperidine-2,6-dione]							B (80%< substrate protein remaining %≤ 100%)	B (80%< substrate protein remaining %≤ 100%)	B (80%< substrate protein remaining %≤ 100%)	B (80%< substrate protein remaining %≤ 100%)	B (80%< substrate protein remaining %≤ 100%)	A (0% ≤ substrate protein remaining % ≤ 80%)
